In patent US20180153826A1, “MATERIALS AND METHODS FOR THE TREATMENT OF CYSTIC FIBROSIS” (UNIVERSITY OF FLORIDA RESEARCH FOUNDATION, INC., priority 2015, published 2018):

How the values were obtained:
distal colonic mucosa = test: Lumen alkalinization response to [Ca^2+]o (lumen pH, Ussing chamber); parameters: species or system rat; conditions: for lumen alkalinization rate: mean±SE, n=3
Description: Experiments were performed using non-fasting male Sprague-Dawley rats and C57BL/6 mice. Rats weighting 100-400 g were obtained from Charles River Laboratories. Mice lacking CaSR expression in intestinal epithelial cells (CaSR^−/−) and their CaSR^+/+ littermates were bred and maintained. CaSR^−/− mice were generated as previously described. Briefly, CaSR flox/flox mice were bred with transgenic mice expressing Cre Recombinase under the control of the villin 1 promoter and genotyped prior to all experiments after an approximate 10-12 generations. Mice were used at 5-10 weeks of age. Animals were fed and maintained on regular chow (Harlan) with free access to water before sacrifice. Animals were sacrificed with standard CO2 inhalation followed by cervical dislocation. The colons were isolated, cut open along the mesenteric border into a flat sheet, and flushed with ice-cold Ringer solutions. Mucosa from the distal colon were carefully hand-stripped off of serosal, muscular and submucosal layers as described and a pair of adjacent mucosal segments were incised and mounted into Ussing chambers. In some experiments, stripped mucosa was incised longitudinally into two equal pieces in order to facilitate comparisons between control and treatment. Short-circuit current and transepithelial resistance differences between these two adjacent tissues were less than 15%.
Stripped mucosal sheets were mounted into Ussing chambers (window area=0.3-0.5 cm^2, Physiologic Instruments, San Diego, Calif.). The mucosal side of tissue was bathed with an unbuffered HCO3^−-free Cl^− Ringer solution (see Table 2 for detailed composition) circulated by a gas lift with 100% O2 while the serosal side was bathed with buffered Cl^− Ringer solution (pH 7.4) that contained 25 mM HCO3^− and gassed with 5% CO2/95% O2. Each side contained 3-5 ml of solution and the temperature of the solution was adjusted to and maintained at 37° C. by heated water-jacketed reservoirs. Experiments were performed under short-circuit conditions (Voltage-Current Clamp, VCC MC8; Physiologic Instruments, San Diego, Calif.) to maintain the transepithelial potentials at 0 mV, except for brief interruption at 20-second intervals for recording of open-circuit potential (VT, mV).
(§1) Two types of approaches were used in the measurement of colonic HCO3^− secretion, namely, measurement of lumen pH or pH stat titration of net alkalinization by colonic mucosa. […] The amount of the acid delivered per unit time per surface area was used to quantitate HCO3^− secretion by the mucosa. Measurements were recorded continuously and mean values for consecutive 5 or 10 min periods were averaged. The rate of HCO3^− secretion (JHCO3) is expressed as μEq/hr/cm^2. The short-circuit current (Isc) was measured in microamperes (μA) and converted into μEq/hr/cm^2. Tissue resistance (R, Ω cm^2) was calculated from Ohm's law.
Two equal pieces of mucosa from each colon that were obtained by longitudinal division along the antimessenteric border were mounted into two Ussing chambers. […] After 15 to 30 min, when stabilization was achieved and basal lumen pH recordings performed, HCO3^−-free Ringer solution in the serosal side was replaced by 25 mM HCO3-containing Ringer solution, and changes in lumen pH were monitored and recorded for 15 to 30 min. […]

ENaC = ENaC activity as amiloride-sensitive bumetanide-insensitive Isc, weanling distal colon; parameters: species or system rat; conditions: 2.5% w/w added to diet vs normal 1%; 3 week old rats, distal colon
Description: FIG. 17. The inhibitory effect of […] on ENaC was examined electrophysiologically by measuring amiloride-sensitive short-circuit current responses in the presence or absence of […]. Weanling infant distal colonic mucosa, which expresses highest activity of ENaC, is employed and mounted in Ussing chamber. FIGS. 19A-19C. […] Here, the activity of ENaC is measured as amiloride-sensitive bumetanide-insensitive Isc. […] FIGS. 20A-20C. […] The activity of ENaC was measured as amiloride-sensitive bumetanide-insensitive Isc. […] Secretory Cl current is mediated by apical CFTR. This Cl secretory Isc is sensitive to bumetanide, applied to the basolateral side of the epithelium. There, bumetanide inhibits Cl entry from blood into the cell; thus, in the presence of bumetanide, the secretory Cl current is eliminated. Absorptive Na current is mediated by apically located epithelial Na channel (ENaC). This latter current is particularly high in this weanling age and is sensitive to amiloride, when it is applied luminally.

[1] = tested on: cAMP-dependent HCO3^− secretion; test: Cyclic nucleotide (cAMP)-dependent HCO3^− secretion, lumen Cl^−/SCFA-free; parameters: species or system rat; conditions: luminal; glibenclamide 100 μM, GlyH-101 10 μM, NPPB 100 μM (data not shown)
Description: Stripped mucosal sheets were mounted into Ussing chambers (window area=0.3-0.5 cm^2, Physiologic Instruments, San Diego, Calif.). The mucosal side of tissue was bathed with an unbuffered HCO3^--free Cl^- Ringer solution (see Table 2 for detailed composition) circulated by a gas lift with 100% O2 while the serosal side was bathed with buffered Cl^- Ringer solution (pH 7.4) that contained 25 mM HCO3^- and gassed with 5% CO2/95% O2. Each side contained 3-5 ml of solution and the temperature of the solution was adjusted to and maintained at 37° C. by heated water-jacketed reservoirs. Experiments were performed under short-circuit conditions (Voltage-Current Clamp, VCC MC8; Physiologic Instruments, San Diego, Calif.) to maintain the transepithelial potentials at 0 mV, except for brief interruption at 20-second intervals for recording of open-circuit potential (VT, mV). Two types of approaches were used in the measurement of colonic HCO3^- secretion, namely, measurement of lumen pH or pH stat titration of net alkalinization by colonic mucosa. […] Radiometer Analytical, Villeurbanne, France). The amount of the acid delivered per unit time per surface area was used to quantitate HCO3^- secretion by the mucosa. Measurements were recorded continuously and mean values for consecutive 5 or 10 min periods were averaged. […] The short-circuit current (Isc) was measured in microamperes (μA) and converted into μEq/hr/cm^2. Tissue resistance (R, Ω cm^2) was calculated from Ohm's law. Colon segments were prepared and treated as in the secretagogue-induced HCO3^- secretion experiments except that they were bathed luminally with HCO3^--free Ringer solution that contained no isobutyrate and no Cl^-. Cyclic nucleotide-dependent HCO3^- secretion was calculated as […] (the difference between JHCO3 after minus JHCO3 before the addition of forskolin). When inhibitor was used, it was added at 30 min before […] or forskolin.

[2] = tested on: Cl^− secretion induced by forskolin; conditions: rat distal colon; cited from earlier work
Cl^−/HCO3^− exchange = Cl^−/HCO3^− exchange activity (Cl^−-dependent HCO3^− secretion); parameters: species or system rat; conditions: pretreatment, 100 μM, lumen side (data not shown)
Description: Stripped mucosal sheets were mounted into Ussing chambers (window area=0.3-0.5 cm^2, Physiologic Instruments, San Diego, Calif.). The mucosal side of tissue was bathed with an unbuffered HCO3^−-free Cl^− Ringer solution (see Table 2 for detailed composition) circulated by a gas lift with 100% O2 while the serosal side was bathed with buffered Cl^− Ringer solution (pH 7.4) that contained 25 mM HCO3^− and gassed with 5% CO2/95% O2. Each side contained 3-5 ml of solution and the temperature of the solution was adjusted to and maintained at 37° C. by heated water-jacketed reservoirs. […]
as §1, with “law. […]” for “law.”

[3] = tested on: CFTR-mediated and non CFTR-mediated HCO3^− secretion; test: Isc and pH stat HCO3^− secretion with/without lumen Cl^−, CFTR inhibitors or DIDS (FIGS. 5, 6); conditions: R568 response
Source text: FIG. 3. Experimental approach 1: The Ussing chamber pH-stat set up used to monitor and measure HCO3^- secretion by colonic mucosa. FIG. 4. Experimental Approach 2: Measurement of HCO3^- secretion by colonic mucosa in the presence of apical NPPB/Glibenclamide. FIGS. 5A-5F. Activation of CaSR by […] inhibits CFTR-mediated HCO3^- secretion (JHCO3) and ISC but stimulates non CFTR-mediated HCO3^- secretion (JHCO3) and Isc. Physiological approach assayed with, versus without, lumen Cl^-. FIGS. 6A-6F. Activation of CaSR by […] inhibits CFTR-mediated HCO3^- secretion (JHCO3) and ISC but stimulates CFTR-independent HCO3^- secretion (JHCO3) and Isc. Pharmacological approach assayed with, and without, CFTR transporter inhibitors or AE inhibitor DIDS.

[Ca+2] [Ca^2+]
basal Isc (distal colonic mucosa; 0.5 mM [Ca^2+]o): 1.44±0.32 μEq/hr/cm^2 | basal Isc (distal colonic mucosa; 1.2 mM [Ca^2+]o): 1.10±0.10 μEq/hr/cm^2 | lumen alkalinization rate (distal colonic mucosa; [Ca^2+]o = 0.5 mM): 0.013±0.002 pH unit/min/cm^2 | lumen alkalinization rate (distal colonic mucosa; [Ca^2+]o = 1.2 mM): 0.031±0.002 pH unit/min/cm^2 | amiloride-sensitive ENaC-mediated basal Isc (ENaC): suppressed

COc1ccc(Cl)cc1C(=O)NCCc1ccc(S(=O)(=O)NC(=O)NC2CCCCC2)cc1 [glibenclamide]
effect of pretreatment on forskolin stimulatory and R568 inhibitory effects on Isc [1]: abolished

O=C(CNc1ccc2ccccc2c1)N/N=C/c1cc(Br)c(O)c(Br)c1O [GlyH-101]
effect of pretreatment on forskolin stimulatory and R568 inhibitory effects on Isc [1]: abolished

CCCCNc1cc(C(=O)O)cc(S(N)(=O)=O)c1Oc1ccccc1 [Bumetanide]
inhibition of forskolin-induced Cl^− secretion [2]: ~70%

C[N+](C)(C)CCOC(N)=O [Carbachol]
lumen pH response (distal colonic mucosa; 100 μM, serosa, positive control): initial transient increase followed by a sustained increase in lumen pH

O=S(=O)(O)c1cc(N=C=S)ccc1C=Cc1ccc(N=C=S)cc1S(=O)(=O)O [DIDS, 4,4′-diisothiocyano-2,2′-stilbenedisulfonic acid]
luminal Cl^−-dependent HCO3^− secretory mechanism (Cl^−/HCO3^− exchange): partially abolished | AE-associated current ([3]; FIG. 6C vs. 6A): partially inhibited | CFTR activity (current) ([3]; FIG. 6C vs. 6A): inhibited | HCO3^− secretion rate ([3]; FIG. 6F with 6D): stimulated or did not change

O=C(O)c1cc([N+](=O)[O-])ccc1NCCCc1ccccc1 [NPPB, 5-nitro-2-(3-phenylpropylamino)benzoic acid]
effect of pretreatment on forskolin stimulatory and R568 inhibitory effects on Isc [1]: abolished
